Assay results: patent US20100099871A1, “ANTI-PSYCHOTIC COMPOUNDS AND PHARMACEUTICAL COMPOSITIONS THEREOF” (priority 2008, published 2010)

What was measured:
Alpha 2C = Alpha 2C (Homo sapiens, UniProt P18825); test: In vitro receptor binding, Alpha 2C; settings: given in words, no number
Protocol: (§1) Three of the compounds predicted to display antipsychotic activity have been synthesized and characterized. Once compounds meeting selection criteria of the spectral models were identified, confirmatory in vitro screening and cross-screening were conducted. For example, receptor binding studies were conducted for 5-HT1A, 5-HT2A, 5-HT2C, 5-HT6, 5-HT7, α1A, α1B, α1D, α2A, α2B, α2C, D2, H1, M1, M2, M3, M4, and M5 to further determine a broad pharmacological profile for compounds meeting spectral modeling selection criteria. Synthesis and characterization of these compounds is provided as an Experimental Example. […] For D2 and 5-HT2A receptors, experimental results were within 11% of predicted values. […] In some embodiments, the compounds are selective for 5-HT2A over D2. […] As such the compounds are advantageous over clozapine and may be beneficial for treating psychotic conditions, such as schizophrenia.

M3 = M3 (Homo sapiens, UniProt P20309); test: In vitro receptor binding, M3; settings: read-out: In vitro testing data (receptor binding affinity), M3
Protocol: as §1

5-HT2c = 5-HT2c (Homo sapiens, UniProt P28335); test: In vitro receptor binding, 5-HT2c; settings: read-out: In vitro testing data (receptor binding affinity), 5-HT2c
Chain of 5-HT2c (P28335 33-458, species assumed): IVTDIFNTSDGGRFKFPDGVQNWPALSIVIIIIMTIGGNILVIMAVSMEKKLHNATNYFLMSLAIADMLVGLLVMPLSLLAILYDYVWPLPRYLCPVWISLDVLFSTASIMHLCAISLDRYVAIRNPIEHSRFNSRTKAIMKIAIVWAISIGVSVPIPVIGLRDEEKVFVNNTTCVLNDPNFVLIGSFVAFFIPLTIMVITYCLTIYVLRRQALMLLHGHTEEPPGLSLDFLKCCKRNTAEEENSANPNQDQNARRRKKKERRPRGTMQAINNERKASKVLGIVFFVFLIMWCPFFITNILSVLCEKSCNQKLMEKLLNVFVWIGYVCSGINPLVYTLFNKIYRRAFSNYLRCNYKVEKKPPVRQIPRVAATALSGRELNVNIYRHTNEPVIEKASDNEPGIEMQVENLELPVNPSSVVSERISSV
Protocol: as §1

5-HT6 = 5-HT6 (Homo sapiens, UniProt P50406); test: In vitro receptor binding, 5-HT6; settings: read-out: In vitro testing data (receptor binding affinity), 5-HT6
Chain of 5-HT6 (P50406 whole entry, species assumed): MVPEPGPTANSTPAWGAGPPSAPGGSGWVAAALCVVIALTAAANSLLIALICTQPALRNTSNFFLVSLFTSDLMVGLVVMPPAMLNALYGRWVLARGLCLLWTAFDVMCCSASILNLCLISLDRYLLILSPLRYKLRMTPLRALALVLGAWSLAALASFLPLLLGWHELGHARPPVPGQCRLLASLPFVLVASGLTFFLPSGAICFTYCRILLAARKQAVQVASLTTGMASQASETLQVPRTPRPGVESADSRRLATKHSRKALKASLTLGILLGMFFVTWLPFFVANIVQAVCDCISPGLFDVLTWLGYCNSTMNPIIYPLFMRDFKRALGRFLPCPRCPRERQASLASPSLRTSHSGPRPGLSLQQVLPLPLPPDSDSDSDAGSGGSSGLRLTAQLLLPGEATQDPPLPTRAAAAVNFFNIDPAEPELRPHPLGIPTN
Protocol: as §1

Alpha 2B = Alpha 2B (Homo sapiens, UniProt P18089); test: In vitro receptor binding, Alpha 2B; settings: given in words, no number
Protocol: as §1

H1 = H1 (Homo sapiens, UniProt P35367); test: In vitro receptor binding, H1; settings: read-out: In vitro testing data (receptor binding affinity), H1
Chain of H1 (P35367 whole entry): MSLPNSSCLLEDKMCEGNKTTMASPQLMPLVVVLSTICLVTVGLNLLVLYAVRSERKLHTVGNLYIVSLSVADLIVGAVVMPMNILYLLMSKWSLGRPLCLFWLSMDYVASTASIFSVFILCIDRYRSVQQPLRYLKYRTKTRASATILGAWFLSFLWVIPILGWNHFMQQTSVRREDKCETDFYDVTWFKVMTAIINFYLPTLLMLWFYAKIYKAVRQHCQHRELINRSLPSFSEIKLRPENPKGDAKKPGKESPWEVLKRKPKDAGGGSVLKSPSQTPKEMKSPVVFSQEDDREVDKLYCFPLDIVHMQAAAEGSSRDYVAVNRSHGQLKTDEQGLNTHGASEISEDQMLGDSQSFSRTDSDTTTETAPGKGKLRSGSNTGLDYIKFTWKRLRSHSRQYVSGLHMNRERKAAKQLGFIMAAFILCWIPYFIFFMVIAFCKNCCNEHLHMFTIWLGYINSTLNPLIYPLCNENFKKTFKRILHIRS
Protocol: as §1

5-HT7 = 5-HT7 (Homo sapiens, UniProt P34969); test: In vitro receptor binding, 5-HT7; settings: read-out: In vitro testing data (receptor binding affinity), 5-HT7
Chain of 5-HT7 (P34969 whole entry, species assumed): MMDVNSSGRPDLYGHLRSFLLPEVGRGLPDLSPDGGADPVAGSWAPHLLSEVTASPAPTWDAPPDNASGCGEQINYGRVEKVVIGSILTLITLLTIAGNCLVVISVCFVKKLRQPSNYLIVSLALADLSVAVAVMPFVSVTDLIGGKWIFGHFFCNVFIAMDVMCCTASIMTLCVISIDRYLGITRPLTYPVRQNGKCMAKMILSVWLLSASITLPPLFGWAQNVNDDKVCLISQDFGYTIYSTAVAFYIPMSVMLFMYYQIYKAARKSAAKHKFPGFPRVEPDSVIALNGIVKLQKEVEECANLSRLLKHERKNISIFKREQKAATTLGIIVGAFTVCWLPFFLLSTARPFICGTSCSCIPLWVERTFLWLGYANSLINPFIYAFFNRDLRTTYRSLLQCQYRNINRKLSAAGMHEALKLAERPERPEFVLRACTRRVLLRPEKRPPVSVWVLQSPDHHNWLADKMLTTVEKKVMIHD
Protocol: as §1

Alpha 2A = Alpha 2A (Homo sapiens, UniProt P08913); test: In vitro receptor binding, Alpha 2A; settings: given in words, no number
Chain of Alpha 2A (P08913 whole entry): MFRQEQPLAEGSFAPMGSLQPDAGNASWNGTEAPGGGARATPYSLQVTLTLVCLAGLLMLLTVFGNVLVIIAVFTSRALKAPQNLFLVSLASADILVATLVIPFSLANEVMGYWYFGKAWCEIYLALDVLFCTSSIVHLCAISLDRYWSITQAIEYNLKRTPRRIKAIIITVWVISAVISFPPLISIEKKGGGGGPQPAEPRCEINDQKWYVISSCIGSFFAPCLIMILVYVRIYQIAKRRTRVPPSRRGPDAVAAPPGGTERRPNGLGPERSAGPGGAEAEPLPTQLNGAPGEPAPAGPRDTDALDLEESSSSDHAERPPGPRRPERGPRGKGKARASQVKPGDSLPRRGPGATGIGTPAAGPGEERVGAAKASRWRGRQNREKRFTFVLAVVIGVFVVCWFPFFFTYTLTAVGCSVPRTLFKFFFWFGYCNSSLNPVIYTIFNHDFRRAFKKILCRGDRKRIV
Protocol: as §1

M4 = M4 (Homo sapiens, UniProt P08173); test: In vitro receptor binding, M4; settings: read-out: In vitro testing data (receptor binding affinity), M4
Protocol: as §1

M1 = M1 (Homo sapiens, UniProt P11229); test: In vitro receptor binding, M1; settings: read-out: In vitro testing data (receptor binding affinity), M1
Chain of M1 (P11229 whole entry): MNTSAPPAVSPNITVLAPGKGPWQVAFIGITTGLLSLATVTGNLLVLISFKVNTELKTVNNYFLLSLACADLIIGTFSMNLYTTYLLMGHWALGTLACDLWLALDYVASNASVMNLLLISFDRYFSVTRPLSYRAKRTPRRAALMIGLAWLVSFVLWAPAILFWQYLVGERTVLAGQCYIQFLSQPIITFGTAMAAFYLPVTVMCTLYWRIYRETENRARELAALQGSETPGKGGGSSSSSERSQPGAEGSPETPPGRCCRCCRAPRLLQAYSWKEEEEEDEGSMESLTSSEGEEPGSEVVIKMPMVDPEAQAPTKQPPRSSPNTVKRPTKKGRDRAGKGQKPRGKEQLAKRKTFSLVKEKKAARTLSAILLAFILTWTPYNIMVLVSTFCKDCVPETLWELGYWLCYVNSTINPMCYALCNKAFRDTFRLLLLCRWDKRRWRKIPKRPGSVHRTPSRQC
Protocol: as §1

M2 = M2 (Homo sapiens, UniProt P08172); test: In vitro receptor binding, M2; settings: read-out: In vitro testing data (receptor binding affinity), M2
Chain of M2 (P08172 whole entry): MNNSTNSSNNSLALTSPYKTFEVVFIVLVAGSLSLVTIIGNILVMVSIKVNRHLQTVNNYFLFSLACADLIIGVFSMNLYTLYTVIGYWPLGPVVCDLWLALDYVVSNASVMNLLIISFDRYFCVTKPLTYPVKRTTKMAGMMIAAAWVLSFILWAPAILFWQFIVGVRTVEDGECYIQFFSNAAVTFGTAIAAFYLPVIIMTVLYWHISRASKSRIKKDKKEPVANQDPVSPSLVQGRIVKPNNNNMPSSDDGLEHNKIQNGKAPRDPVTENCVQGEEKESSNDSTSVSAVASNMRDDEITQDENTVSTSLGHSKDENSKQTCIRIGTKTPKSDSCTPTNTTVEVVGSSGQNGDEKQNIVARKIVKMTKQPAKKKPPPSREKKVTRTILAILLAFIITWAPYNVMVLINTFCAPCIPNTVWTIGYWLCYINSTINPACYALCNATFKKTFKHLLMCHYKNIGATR
Protocol: as §1

D2 = D2 (Homo sapiens, UniProt P14416); test: In vitro receptor binding, D2; settings: read-out: In vitro testing data (receptor binding affinity), D2
Protocol: as §1

Alpha 1A = Alpha 1A (Homo sapiens, UniProt P35348); test: In vitro receptor binding, Alpha 1A; settings: given in words, no number
Protocol: as §1

5-HT2a = 5-HT2a (Homo sapiens, UniProt P28223); test: In vitro receptor binding, 5-HT2a; settings: read-out: In vitro testing data (receptor binding affinity), 5-HT2a
Protocol: as §1

Alpha 1D = Alpha 1D (Homo sapiens, UniProt P25100); test: In vitro receptor binding, Alpha 1D; settings: given in words, no number
Chain of Alpha 1D (P25100 whole entry): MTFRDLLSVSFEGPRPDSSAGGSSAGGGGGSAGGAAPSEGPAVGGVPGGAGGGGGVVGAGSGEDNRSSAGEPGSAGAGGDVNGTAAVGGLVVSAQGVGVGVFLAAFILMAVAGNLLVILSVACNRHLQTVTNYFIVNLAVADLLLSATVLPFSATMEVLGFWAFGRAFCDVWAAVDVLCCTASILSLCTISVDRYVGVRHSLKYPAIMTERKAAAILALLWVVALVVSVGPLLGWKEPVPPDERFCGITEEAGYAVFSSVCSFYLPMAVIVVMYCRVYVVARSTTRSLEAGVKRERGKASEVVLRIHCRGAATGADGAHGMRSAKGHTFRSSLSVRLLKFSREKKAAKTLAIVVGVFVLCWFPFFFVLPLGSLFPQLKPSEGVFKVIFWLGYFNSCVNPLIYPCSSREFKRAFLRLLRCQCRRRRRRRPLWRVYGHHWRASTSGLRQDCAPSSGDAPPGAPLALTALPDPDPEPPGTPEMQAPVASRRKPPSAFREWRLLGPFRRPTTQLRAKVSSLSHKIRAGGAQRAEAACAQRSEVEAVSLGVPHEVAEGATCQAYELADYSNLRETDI
Protocol: as §1

M5 = M5 (Homo sapiens, UniProt P08912); test: In vitro receptor binding, M5; settings: read-out: In vitro testing data (receptor binding affinity), M5
Protocol: as §1

Alpha 1B = Alpha 1B (Homo sapiens, UniProt P35368); test: In vitro receptor binding, Alpha 1B; settings: given in words, no number
Chain of Alpha 1B (P35368 whole entry): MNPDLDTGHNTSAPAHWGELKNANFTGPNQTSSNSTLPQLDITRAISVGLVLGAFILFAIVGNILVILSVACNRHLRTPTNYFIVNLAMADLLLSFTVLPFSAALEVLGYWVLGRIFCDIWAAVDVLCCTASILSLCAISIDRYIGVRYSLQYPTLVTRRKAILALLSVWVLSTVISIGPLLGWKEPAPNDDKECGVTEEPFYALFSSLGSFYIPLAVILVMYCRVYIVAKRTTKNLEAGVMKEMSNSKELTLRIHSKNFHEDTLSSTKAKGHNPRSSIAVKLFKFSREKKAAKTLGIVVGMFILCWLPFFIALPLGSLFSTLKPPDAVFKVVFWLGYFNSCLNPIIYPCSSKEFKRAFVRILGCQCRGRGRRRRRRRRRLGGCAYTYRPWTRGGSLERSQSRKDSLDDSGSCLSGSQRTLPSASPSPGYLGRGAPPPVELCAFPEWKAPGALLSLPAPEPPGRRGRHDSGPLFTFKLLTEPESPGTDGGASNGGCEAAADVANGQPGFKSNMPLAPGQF
Protocol: as §1

[1] = test system: pre-frontal cortex acetylcholine release; test: In vivo microdialysis, pre-frontal cortex acetylcholine release; design: species or system male Sprague-Dawley rats; settings: rat microdialysis (FIG. 13); LMD-00100t at the maximum dose tested, data not shown
Protocol: (§2) In vivo microdialysis studies were conducted according to established methods. In summary, two cannulae with microdialysis probes were implanted via stereotaxic surgery (one each into two separate brain regions), into the medial prefrontal cortex and nucleus accumbens of male Sprague-Dawley rats weighing from 250 g to 300 g. After recovery from surgery, a solution was circulated through the probes on test days collecting extracellular synaptic fluid at 30-minute intervals and delivering it to an HPLC for analysis of extracellular dopamine concentrations in real time following antipsychotic compound dosing. Simultaneously, an aliquot was taken and frozen for later mass spectrometric determination of acetylcholine concentrations.

5-HT1a = 5-HT1a (Homo sapiens, UniProt P08908); test: In vitro receptor binding, 5-HT1a; settings: given in words, no number
Protocol: as §1

[2] = test system: nucleus accumbens dopamine release; test: In vivo microdialysis, nucleus accumbens dopamine release; design: species or system male Sprague-Dawley rats; settings: rat microdialysis; ceiling effect, increasing dose gave no additional release (FIG. 12)
Protocol: as §2

[3] = test system: pre-frontal cortex dopamine release; test: In vivo microdialysis, pre-frontal cortex dopamine release; design: species or system male Sprague-Dawley rats; settings: rat microdialysis
Protocol: as §2

Chain of Alpha 2C (P18825 whole entry): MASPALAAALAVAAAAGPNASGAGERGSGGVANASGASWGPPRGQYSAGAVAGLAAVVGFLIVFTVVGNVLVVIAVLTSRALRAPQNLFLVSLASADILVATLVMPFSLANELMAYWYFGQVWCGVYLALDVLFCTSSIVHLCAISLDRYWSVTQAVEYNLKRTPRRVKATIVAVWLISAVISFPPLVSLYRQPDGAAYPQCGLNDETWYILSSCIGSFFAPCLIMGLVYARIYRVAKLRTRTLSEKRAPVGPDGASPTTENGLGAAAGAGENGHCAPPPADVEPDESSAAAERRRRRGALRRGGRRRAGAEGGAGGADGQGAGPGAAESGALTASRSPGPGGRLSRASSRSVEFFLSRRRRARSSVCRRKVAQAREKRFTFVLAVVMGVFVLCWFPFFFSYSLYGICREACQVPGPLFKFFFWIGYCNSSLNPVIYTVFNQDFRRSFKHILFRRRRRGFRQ

Row | SMILES | In vitro testing data, Alpha 2C (yes) (Alpha 2C) | Kd (M3) | Kd (5-HT2c) | Kd (5-HT6) | In vitro testing data, Alpha 2B (yes) (Alpha 2B) | Kd (H1) | Kd (5-HT7) | In vitro testing data, Alpha 2A (yes) (Alpha 2A) | Kd (M4) | Kd (M1) | Kd (M2) | Kd (D2) | In vitro testing data, Alpha 1A (yes) (Alpha 1A) | Kd (5-HT2a) | In vitro testing data, Alpha 1D (yes) (Alpha 1D) | Kd (M5) | In vitro testing data, Alpha 1B (yes) (Alpha 1B) | other results
1 | CCN1CCN(CCN2c3ccccc3Cc3ccccc32)CC1 [LMD-00060] | yes | 2.49 µM | 2.74 µM | 1.52 µM | yes | 0.255 µM | 1.06 µM | yes | 1.91 µM | 1.36 µM | > 10 µM | 0.632 µM | yes | 0.349 µM | yes | 0.613 µM | yes | –
2 | CN1CCN(CCN2c3ccccc3Cc3ccccc32)CC1 [LMD-00076] | yes | 0.702 µM | 0.968 µM | 0.652 µM | yes | 0.185 µM | 1.14 µM | yes | 1.1 µM | 0.707 µM | 3.33 µM | 0.692 µM | yes | 0.249 µM | yes | 0.419 µM | yes | cortical acetylcholine (ACh) efflux [1]: significant increase; In vitro testing data, 5-HT1a (yes / dash) (5-HT1a): yes; nucleus accumbens dopamine release [2]: modest increase; pre-frontal cortex dopamine efflux on co-dosing with WAY 100635 ([3]; 5-HT1A silent antagonist WAY 100635 co-dosed with LMD-00076 (FIG. 11, curve labeled control)): blocked; pre-frontal cortex dopamine release ([3]; as a function of time following administration (FIG. 11, FIG. 14)): dose-dependent
